Results as given in BindingDB's records for doi:10.1021/jm049478u (Johnson & Johnson Pharmaceutical Research & Development, 2005).

Molecular target: Glycogen synthase kinase-3 beta (Oryctolagus cuniculus)
Assay: Inhibition of rabbit Glycogen synthase kinase-3 beta

- IC50: 270 nM
Compound: CN(C)CCCn1nc(C2=C(c3cn(-c4ccccc4)c4ccccc34)C(=O)NC2=O)c2ccccc21 [3-[1-(3-Dimethylamino-propyl)-1H-indazol-3-yl]-4-(1-phenyl-1H-indol-3-yl)-pyrrole-2,5-dione]
